Source: paper PMC4368603, “Cardiac Contractility Structure-Activity Relationship and Ligand-Receptor Interactions; the Discovery Of Unique and Novel Molecular Switches in Myosuppressin Signaling” (PLoS ONE, 2015)
Values joined by “and” are separate entries in the source; they are usually repeats but may differ in a detail not shown here. Identical values can stand only once. Square brackets hold non-standard residues; d marks the D form. Ends that are not written are not given here. Peptide text beside a SMILES is read from it. pGlu = O=C1CC[C@@H](C(=O)O)N1

Columns and labels:
R. prolixus heart = type: in vivo, Rhodnius prolixus; details: for EC50: 5th instar semi-intact preparation, 25 ± 2°C, heart rate as % of saline, non-linear regression, N = 10 animals per condition, read-out: EC50, dose-dependent decrease of R. prolixus heart rate (cardiac contractility)
Protocol: R. prolixus were maintained at 28°C under high humidity in a cycle of 12h:12h (L:D). The insects used were 5th instar 2–3 weeks post-ecdysis fed on chicken blood.
Fifth instar R. prolixus were placed ventral surface down on a dish with paraffin wax and dissected under physiological saline. Segments four to seven from the dorsal abdominal cuticle were removed using minuten pins leaving the dorsal vessel exposed. The semi-intact preparation was equilibrated in 20 μl saline for 20 minutes at room temperature (25° ± 2°C), replacing the fluid with fresh saline every five minutes. Heart rate was measured under saline after the final bath, counting the number of contractions in one minute. This counting was replicated three times for each preparation, and the results of the three countings were averaged. After this, the saline was removed and replaced with an equal volume of solution containing a peptide. The heart rate was measured and expressed as % of the control (saline). Ten animals were analyzed for control and for each experiment. The investigator who performed the bioassay was unaware of the peptide structures being tested.
Dose response curves were generated and the effective concentrations at half-maximal response (EC50) values were calculated using a non-linear regression with GraphPad Prism version 6.03. Activities of RhpMS, DrmMS, and analogs were compared to saline, set at 100%, using Single Factor ANOVA to calculate p values; significance was set at p ≤ 0.05.

gut = gut motility SAR; cited from earlier work
Description: (§1) Table 3 DrmMS and analogs: structures and activities. | column: Gut || [6–10]DrmMS was the heart rate active core, yet [4–10]DrmMS was the gut motility active core. […] We believed DrmMS-DrmMS-R1 and DrmMS-DrmMS-R2 interactions would reflect our SAR data. N-terminal truncated and alanyl-substituted analogs (Table 3) were docked to the receptors; additional data are available in Supporting Information. In DrmMS docked to DrmMS-R1 (Fig. 4, Table 4), F7 made multipl ...

heart = details: cardiac contractility / heart rate SAR; cited from earlier work
Description: as §1, with “Heart” for “Gut”

Molecule	EC50 (R. prolixus heart) [nM]	Gut activity (gut)	Heart activity (heart)	Heart Rate Mean ± S.E.M., percent of saline (R. prolixus heart; peptide at 1 μM, saline = 100%, ten animals per experiment)
TDVDHVFLRF-NH2 [DrmMS]	50	–	–	–
Y-T(Bpa)VDHVFLRF-NH2 [Y-Bpa2DrmMS]	–	agonist	agonist	–
CC[C@H](C)[C@H](NC(=O)[C@H](CC(=O)O)NC(=O)[C@@H]1CCC(=O)N1)C(=O)N[C@@H](CC(=O)O)C(=O)N[C@@H](Cc1c[nH]cn1)C(=O)N[C@H](C(=O)N[C@@H](Cc1ccccc1)C(=O)N[C@@H](CCSC)C(=O)N[C@@H](CCCNC(=N)N)C(=O)N[C@@H](Cc1ccccc1)C(N)=O)C(C)C [RhpMS] ([pGlu]DIDHVFMRF-NH2)	140	–	–	4 % of saline and 4 ± 3 % of saline
DHVFLRF-NH2 [[4–10]DrmMS, N-terminal truncated DrmMS analog DHVFLRF-NH2]	–	active core	agonist	–
FLRF-NH2 [[7–10]DrmMS, N-terminal truncated DrmMS analog FLRF-NH2]	–	inactive	inactive	–
DHVFMRF-NH2 [[4–10]RhpMS]	32	–	–	–
TDVDHVFARF-NH2 [[A8] DrmMS, alanyl-substituted DrmMS analog […]-NH2]	–	inactive	agonist	–
HVFLRF-NH2 [[5–10]DrmMS, N-terminal truncated DrmMS analog HVFLRF-NH2]	–	antagonist	agonist	–
VFLRF-NH2 [[6–10]DrmMS, N-terminal truncated DrmMS analog VFLRF-NH2]	–	inactive	active core	–
